The values that follow come from patent publication US7667070B2, “Lipophilic compounds and uses thereof” (Centre National de la Recherche Scientifique (CNRS), priority 2002, dated 2010).

Series [1] concerns K 562, Jurkat, Daudi, HeLa, CFPAC cells. Briefly: Determination of the cell toxicity of lipid/DNA complexes (CYTOLITE chemiluminescent test, toxicity index). Type of series: cell-based. The following applies: 48 hours after transfection; non transfected cells as controls. The method, then: The relative cytotoxicity of the different cationic phosphonolipid/DNA complexes is determined as a representation of the number of living cells after the transfection experiment, measured by using a chemiluminescent test, the CYTOLITE® test (marketed by PACKARD Company, France) following the manufacturer's recommendations.
The cell transfection is conducted following the procedure described in the above Section A.3.
On the day of the transfection, cells are seeded in 24-well plate wells at a level of: • 500,000 cells per well for the non adherent cell lineages (K 562. Jurkat, Daudi); and • 150,000 cells per well for the adherent cell lineages (HeLa, CFPAC cells in primary culture).
The cells are treated for the transfection as described hereinabove and incubated for another period of 48 hours.
After incubation, the cytotoxicity test is conducted following the manufacturer's recommendations.
The amount of relative light units (RLU for <<Relative light units>>) being formed is proportional to the number of living cells.
The non transfected cells are used as controls.
The final results are expressed following a toxicity index. The toxicity index represents the ratio between the number of living cells in the control cultures (without cationic lipids/DNA complex) and the number of living cells in the culture wells containing the transfected cells.

The subject of series [2] is mice's lungs. The series can be described thus: In vivo transfection of luciferase plasmid DNA complexed with cationic lipid (luciferase in lungs, RLU). More on the design: species or system mice of the Swiss lineage. The following applies: mouse, 50 μg plasmid DNA as lipid/DNA complex; alone or with DOPE or cholesterol; FIG. 6. The procedure:
Cationic lipid/DNA complexes are prepared according to a charge (+/−) ratio of 4 and are administered to six week old mice of the Swiss lineage through one single injection into the caudal vein. Each animal receives a volume of 200 μl of a solution of the tested lipid/DNA complex, corresponding to 50 μg plasmid DNA coding the luciferase protein.
The animals are sacrificed 24 hours after the injection and each organ of interest id deep frozen in liquid nitrogen and then stored at a temperature of −70° C.
The deep frozen tissues are ground with steel balls in a 2 ml round bottom tube of the Epperdorf type using a device of the Mill MM300 mixer type (marketed by QIAGEN Company; reference: 0030120-094).
The extraction of the proteins from each tissue is performed by incubating the ground tissues in a PLB lysis buffer (Promega) followed by a centrifugation at 10,000 g, 10 min at 4° C. […]
Parallelly, the total protein concentration is measured using the <<Coomassie Plus Reagent Assay Kit>> (marketed by Pierce Company). […]
A comparative study of different cationic lipids is conducted by varying the linking part (Group R^3) between the hydrophobic domain and the hydrophilic domain, in mouse. Each lipid is evaluated separately or in admixture with the DOPE compound or cholesterol, used as co-lipids, as described in the <<Material and Methods>> section.

As to `CCCCCCCCCCCCCCOP(=O)(OCCCCCCCCCCCCCC)N(C)CCC[N+](C)(C)C.[I-]` [KLN 5, 3-[[bis(tetradecyloxy)phosphoryl](methyl)amino]-N.N.N-trimethyl-propanaminium iodide], the “cytotoxicity (toxicity index: living cells in control cultures / living cells in transfected cultures)” value in series [1] was “does not show any toxicity”.

For `CCCCCCCC/C=C\CCCCCCCCOP(=O)(NCCC[P+](C)(C)C)OCCCCCCCC/C=C\CCCCCCCC.[I-]` [KLN20, dioleyl 3-(trimethylphosphonio)propylamidophosphate iodide], in series [2], the “in vivo transfection efficiency (luciferase amount found in lungs)” value was “most efficient”.
